Where a name gives a salt, the structure may show the parent alone.
Each molecule was assayed against T1, Farnesyltransferase (FTase) (Bos taurus, UniProt P29702+P49355) (assay: Farnesyltransferase inhibition (scintillation proximity assay, [3H]-FPP / biotin-K-ras peptide)). Settings: not given.
T1 construct: precipitation from a beef brain homogenate; from tissue; host or cells: bovine brain
Assay type: biochemical, bovine
Procedure: Farnesyltransferase (FTase) or geranylgeranyltransferase I (GGTase I) fractions were isolated from bovine brains and purified by a series of methods which separate FTase from GGTase I and GGTase I from GGTase II. The methods involved a partial purification of all three enzymes by precipitation from a beef brain homogenate with 30% to 50% saturated […] followed by chromatography on DEAE Sepharose. […] The catalytic purity of each enzyme was assayed separately with substrate acceptor proteins specific for that enzyme. After quickly freezing in liquid nitrogen, the various prenyl transferases were stored at −80° C.
The quenched reactions stood for 1 hour before analysis in a Packard TopCount scintillation counter. Purified compounds were dissolved in 100% ethanol and diluted 10-fold into the assay.

T1 sequence (P49355 whole entry, one chain of several): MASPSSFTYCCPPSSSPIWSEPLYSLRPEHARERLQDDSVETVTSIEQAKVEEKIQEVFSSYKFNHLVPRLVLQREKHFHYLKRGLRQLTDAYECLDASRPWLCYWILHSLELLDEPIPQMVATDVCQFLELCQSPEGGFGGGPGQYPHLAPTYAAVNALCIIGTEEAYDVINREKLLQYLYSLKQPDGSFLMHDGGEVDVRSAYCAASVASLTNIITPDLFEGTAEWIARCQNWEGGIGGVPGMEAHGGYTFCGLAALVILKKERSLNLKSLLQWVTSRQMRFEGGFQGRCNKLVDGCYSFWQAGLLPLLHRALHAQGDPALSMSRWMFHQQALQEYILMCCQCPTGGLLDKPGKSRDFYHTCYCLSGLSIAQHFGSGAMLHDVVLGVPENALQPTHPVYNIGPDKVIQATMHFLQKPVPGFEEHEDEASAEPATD

| SMILES | % Inhibition at 10^−6M [%] |
| --- | --- |
| Cc1ccccc1-c1cc(C(OCc2cccc3cccnc23)c2cncn2C)ccc1C#N.Cl (centres unmarked) [Example 149] | 93 |
| Cc1ccccc1COC(c1ccc(C#N)c(-c2ccccc2C)c1)c1cncn1C.Cl (centres unmarked) [Example 135] | 94 |

Same assay, conditions: compound at 10^−6 M; bovine FTase, 37° C., 30 minutes

| SMILES | inhibition at 1 µM [%] | % Inhibition at 10^−6M [%] |
| --- | --- | --- |
| CC(C)c1ccccc1-c1cc(C(OCc2ccccc2)c2cncn2C)ccc1C#N (centres unmarked) [Example 8, 5-((benzyloxy)(1-methyl-1H-imidazol-5-yl)methyl)-2′-isopropyl(1,1′-biphenyl)-2-carbonitrile hydrochloride] | 100 | – |
| COC(=O)c1ccc(COC(c2ccc(C#N)c(-c3ccccc3C(F)(F)F)c2)c2cncn2C)nc1 (centres unmarked) [Example 277, methyl 6-(((6-cyano-2′-(trifluoromethyl)(1,1′-biphenyl)-3-yl)(1-methyl-1H-imidazol-5-yl)methoxy)methyl)nicotinate dihydrochloride] | 95 | – |
| Cn1cncc1C(OCc1ccccc1)c1ccc(C#N)c(-c2cccc(-c3ccccc3)c2)c1 (centres unmarked) [Example 6, 5-((benzyloxy)(1-methyl-1H-imidazol-5-yl)methyl)-3′-(phenyl)(1,1′-biphenyl)-2-carbonitrile hydrochloride] | 61 | – |
| Cc1ccccc1-c1cc(C(OCc2ccccc2)c2cnnn2C)ccc1C#N (centres unmarked) [Example 81, 5-((benzyloxy)(1-methyl-1H-1,2,3-triazol-5-yl)methyl)-2′-methyl(1,1′-biphenyl)-2-carbonitrile hydrochloride] | 14 | – |
| Cc1ccccc1-c1cc(N(Cc2cccc(C#N)c2)Cc2cncn2C)ccc1C#N [Example 237, 5-((3-cyanobenzyl)((1-methyl-1H-imidazol-5-yl)methyl)amino)-2′-methyl(1,1′-biphenyl)-2-carbonitrile] | 100 | – |
| CNC(=O)c1ccc(COC(c2ccc(C#N)c(-c3ccccc3C)c2)c2cncn2C)cc1 (centres unmarked) [Example 189, 4-(((6-cyano-2′-methyl(1,1′-biphenyl)-3-yl)(1-methyl-1H-imidazol-5-yl)methoxy)methyl)-N-methylbenzamide] | 95 | – |
| Cn1cncc1C(OCc1ccccc1)c1ccc(C#N)c(-c2ccsc2)c1 (centres unmarked) [Example 90, 4-((benzyloxy)(1-methyl-1H-imidazol-5-yl)methyl)-2-(3-thienyl)benzonitrile hydrochloride] | 90 | – |
| Cn1cncc1CN(CCCc1ccccc1)c1ccc(C#N)c(-c2cccc3ccccc23)c1 [Example 230, 4-(((1-methyl-1H-imidazol-5-yl)methyl)(3-phenylpropyl)amino)-2-(1-naphthyl)benzonitrile] | 100 | – |
| Cc1ccccc1-c1cc(C(OCc2ccc(C#N)cc2)c2cncn2C)ccc1C#N (centres unmarked) [Example 116, 5-(((4-cyanobenzyl)oxy)(1-methyl-1H-imidazol-5-yl)methyl)-2′-methyl(1,1′-biphenyl)-2-carbonitrile hydrochloride] | 99 | – |
| Cn1cncc1CN(Cc1ccc(S(C)(=O)=O)cc1)Cc1ccc(C#N)c(-c2cccc3ccccc23)c1 [Example 195, 4-((((1-methyl-1H-imidazol-5-yl)methyl)(4-(methylsulfonyl)benzyl)amino)methyl)-2-(1-naphthyl)benzonitrile dihydrochloride] | 98 | – |
| Cc1ccccc1-c1cc(CNC(c2ccc(C#N)c(-c3ccccc3C)c2)c2cncn2C)ccc1C#N (centres unmarked) [Example 26] | – | 100 |
| Cc1ccccc1-c1cc(CN(Cc2ccccc2)Cc2cccnc2)ccc1C#N [Example 215, 5-((benzyl(3-pyridinylmethyl)amino)methyl)-2′-methyl(1,1′-biphenyl)-2-carbonitrile hydrochloride] | 29 | – |
| Cc1ccccc1-c1cc(N(Cc2ccccc2)Cc2cccnc2)ccc1C#N [Example 217, 5-(benzyl(3-pyridinylmethyl)amino)-2′-methyl(1,1′-biphenyl)-2-carbonitrile] | 71 | – |
| N#Cc1ccc(COC(c2ccsc2)c2ccc(C#N)c(-c3cccc4ccccc34)c2)nc1 (centres unmarked) [Example 289, 6-(((4-cyano-3-(1-naphthyl)phenyl)(3-thienyl)methoxy)methyl)nicotinonitrile] | 75 | – |
| Cc1ccccc1-c1cc(N(Cc2ccc(C#N)cc2)Cc2cncn2C)ccc1C#N [Example 229, 5-((4-cyanobenzyl)((1-methyl-1H-imidazol-5-yl)methyl)amino)-2′-methyl(1,1′-biphenyl)-2-carbonitrile] | 100 | – |
| Cn1cncc1CN(Cc1ccc(C#N)c(-c2cccc3ccccc23)c1)Cc1cc(OC(F)(F)F)ccc1O [Example 207, 4-(((2-hydroxy-5-(trifluoromethoxy)benzyl)((1-methyl-1H-imidazol-5-yl)methyl)-amino)methyl)-2-(1-naphthyl)benzonitrile] | 91 | – |
| Cn1cncc1C(SCc1ccc(C#N)cc1)c1ccc(C#N)c(-c2cccc3ccccc23)c1 (centres unmarked) [Example 62, 4-(((4-cyanobenzyl)sulfanyl)(1-methyl-1H-imidazol-5-yl)methyl)-2-(1-naphthyl)benzonitrile hydrochloride] | 100 | – |
| N#Cc1ccc(N(Cc2ccccc2)Cc2cnc[nH]2)cc1-c1cccc2ccccc12 [Example 265, 4-(benzyl(1H-imidazol-5-ylmethyl)amino)-2-(1-naphthyl)benzonitrile] | 100 | – |
| Cc1ccccc1-c1cc(C(OCc2ccc(-c3ccccc3)cc2)c2cncn2C)ccc1C#N (centres unmarked) [Example 161, 5-(((1,1′-biphenyl)-4-ylmethoxy)(1-methyl-1H-imidazol-5-yl)methyl)-2′-methyl(1,1′-biphenyl)-2-carbonitrile hydrochloride] | 96 | – |
| COc1ccccc1-c1cc(C(OCc2ccccc2)c2cncn2C)ccc1C#N (centres unmarked) [Example 5, 5-((benzyloxy)(1-methyl-1H-imidazol-5-yl)methyl)-2′-methoxy(1,1′-biphenyl)-2-carbonitrile hydrochloride] | 91 | – |
| Cl.Cl.Cn1cncc1C(OCc1ccc(C#N)nc1)c1ccc(C#N)c(-c2cccc3ccccc23)c1 (centres unmarked) [Example 274, 5-(((4-cyano-3-(1-naphthyl)phenyl)(1-methyl-1H-imidazol-5-yl)methoxy)methyl)-2-pyridinecarbonitrile dihydrochlolide] | – | 100 |
| Cc1ccc(COC(c2ccc(C#N)c(-c3ccccc3C)c2)c2cncn2C)cc1C (centres unmarked) [Example 154, 5-(((3,4-dimethylbenzyl)oxy)(1-methyl-1H-imidazol-5-yl)methyl)-2′-methyl(1,1′-biphenyl)-2-carbonitrile hydrochloride] | 95 | – |

Second part, led by results:

| inhibition at 1 µM [%] | SMILES | % Inhibition at 10^−6M [%] |
| --- | --- | --- |
| 90 | Cn1cncc1C(CCc1ccccc1)NCc1ccc(C#N)c(-c2cccc3ccccc23)c1 (centres unmarked) [Example 260, 4(((1-(1-methyl-1H-imidazol-5-yl)-3-phenylpropyl)amino)methyl)-2-(1-naphthyl)benzonitrile dihydrochloride] | – |
| 82 | CCOCn1cncc1C(OCc1ccccc1)c1ccc(C#N)c(-c2cccc3ccccc23)c1 (centres unmarked) [Example 105, 4-((benzyloxy)(1-(ethoxymethyl)-1H-imidazol-5-yl)methyl)-2-(1-naphthyl)benzonitrile hydrochloride] | – |
| 100 | Cn1cncc1C(NCc1ccc(C#N)c(I)c1)c1ccc(C#N)c(-c2cccc3ccccc23)c1 (centres unmarked) [Example 37, 4-(((4-cyano-3-iodobenzyl)amino)(1-methyl-1H-imidazol-5-yl)methyl)-2-(1-naphthyl)benzonitrile dihydrochloride] | – |
| 100 | Cn1cncc1C(NCc1ccc(Cl)c(Cl)c1)c1ccc(C#N)c(-c2cccc3ccccc23)c1 (centres unmarked) [Example 47, 4-(((3,4-dichlorobenzyl)amino)(1-methyl-1H-imidazol-5-yl)methyl)-2-(1-naphthyl)benzonitrile] | – |
| 97 | Cc1ccccc1-c1cc(C(OCc2ccc(Cl)c(Cl)c2)c2cncn2C)ccc1C#N (centres unmarked) [Example 125, 5-(((3,4-dichlorobenzyl)oxy)(1-methyl-1H-imidazol-5-yl)methyl)-2′-methyl(1,1′-biphenyl)-2-carbonitrile hydrochloride] | – |
| 100 | CC(NC(c1ccc(C#N)c(-c2cccc3ccccc23)c1)c1cncn1C)c1ccc(C#N)cc1 (centres unmarked) [Example 36, 4-(((1-(4-cyanophenyl)ethyl)amino)(1-methyl-1H-imidazol-5-yl)methyl)-2-(1-naphthyl)benzonitrile dihydrochloride] | – |
| 100 | Cn1cncc1CN(Cc1ccc(C#N)cc1)Cc1ccc(C#N)c(-c2cccc3ccccc23)c1 [Example 34, 4-(((4-cyanobenzyl)((1-methyl-1H-imidazol-5-yl)methyl)amino)methyl)-2-(1-naphthyl)benzonitrile] | – |
| 100 | COC(=O)c1ccc(CNC(c2ccc(C#N)c(-c3cccc4ccccc34)c2)c2cncn2C)nc1 (centres unmarked) [Example 52, methyl 6-((((4-cyano-3-(1-naphthyl)phenyl)(1-methyl-1H-imidazol-5-yl)methyl)amino)methyl)nicotinate trihydrochloride] | – |
| 100 | Cn1cncc1C(OCc1ccc(C#N)cc1)c1cnc(C#N)c(-c2cccc3ccccc23)c1 (centres unmarked) [Example 275, 5-(((4-cyanobenzyl)oxy)(1-methyl-1H-imidazol-5-yl)methyl)-3-(1-naphthyl)-2-pyridinecarbonitrile dihydrochloride] | – |
| 89 | Cn1cncc1CN(Cc1ccc(C#N)c(-c2cccc3ccccc23)c1)C(=O)c1cnc(Cl)c(Cl)c1 [Example 199, 5,6-dichloro-N-(4-cyano-3-(1-naphthyl)benzyl)-N-((1-methyl-1H-imidazol-5-yl)methyl)nicotinamide] | – |
| 100 | Cn1cncc1C(OCc1ccc(C#N)cc1)c1ccc(C#N)c(-c2ccnc3ccccc23)c1 (centres unmarked) [Example 19, 4-(((4-cyanobenzyl)oxy)(1-methyl-1H-imidazol-5-yl)methyl)-2-(4-quinolinyl)benzonitrile dihydrochloride] | – |

From patent US20020019527A1 (priority 2000, published 2002)
